Data taken from article PMC7845594, “Novel Immune Modulators Enhance Caenorhabditis elegans Resistance to Multiple Pathogens” (mSphere, 2021).

Assays:
[1] = system: glp-4(bn2) worms; assay: Longevity (life span) assay; conditions: 50 μM in NGM, E. coli OP50, Fig 3A
Protocol: To test the long-term toxicity of the hit compounds, life span assays were carried out by placing sterile, young adult glp-4(bn2) worms on NGM (standard nematode growth media, defined in Materials and Methods) seeded with Escherichia coli OP50. […] Sterile worms were used to eliminate the need to transfer worms between plates during life span assays, and we elected to use glp-4(bn2) to induce sterility instead of using wild-type worms sterilized with 5-fluoro-2′-deoxyuridine (FUDR) because the interaction of the compounds could generate artifacts during the long course of life span experiments.
Worms were scored daily by prodding. […] The viability was normalized to a DMSO solvent control. […] Error bars represent standard error of the mean.
Worms were picked onto agar plates seeded with 50 µl of concentrated E. coli OP50. Compounds were added to liquid agar before pouring plates. Worms were scored every day for death by prodding with a platinum wire. Worms that escaped the plate or died on the wall of the plate were censored. Each compound was tested in at least three biological replicates, each including 50 to 70 worms.

[2] = system: glp-4(bn2) worms exposed to E. faecalis strain OG1RF; assay: E. faecalis infection assay (liquid); format: in vivo, Caenorhabditis elegans; conditions: glp-4(bn2) worms, 80 h; ± 95% confidence interval
Protocol: Enterococcus faecalis and Staphylococcus aureus are Gram-positive bacterial species frequently responsible for nosocomial infections ([24], [25]). These bacterial species readily infect C. elegans and liquid-based pathogenesis models have been developed for each ([26][–][28]). Sterile, young adult glp-4(bn2) worms were incubated with either E. faecalis or S. aureus and various concentrations of the five compounds. […] Importantly, P. aeruginosa, E. faecalis, and S. aureus use very different mechanisms to kill C. elegans (pyoverdine-mediated mitochondrial damage, gelatinase-mediated damage to the colonized intestine, and multi-toxin-mediated intestinal effacement and damage, respectively) ([29][–][33]). The ability of these compounds to rescue against multiple pathogens that utilize a diverse set of virulence factors and mechanisms of pathogenesis further supports the idea that at least a portion of these compounds’ activity is mediated by stimulating innate immunity.
FIG 2 A subset of LK molecules rescue against E. faecalis and S. aureus. […] Compounds were serially diluted 2-fold, and young adult glp-4(bn2) worms were incubated with the pathogen for 80 h (E. faecalis) or 96 h (S. aureus). The concentrations shown are based on the mean value for at least three replicates. (B and C) Percentages of dead C. elegans after exposure to E. faecalis (B) or S. aureus (C). A representative biological replicate is shown. Each condition included at least six wells per replicate, each well contained approximately 20 worms. Three biological replicates were performed. *, P < 0.05; **, P < 0.01; ***, P < 0.001. P values were calculated using Student’s t test. Error bars represent the standard error of the mean.
The E. faecalis infection assay was performed as previously described ([27]). A single colony was used to inoculate a 5 ml of BHI liquid culture. After 16 to 24 h, 400 µl of this culture was spread on a BHI agar plate and placed at 37°C for 24 h. Next, 384-well plates were made containing 10% BHI, and E. faecalis was removed from the plate by scraping and resuspended in S Basal medium to a final OD of 0.03. Compounds at the desired concentrations or DMSO (final concentration, 1%) were then added to each well. After 3 days, the worms were transferred to new plates using a 0.05% Tween solution to prevent background fluorescence from E. faecalis biofilm. Subsequent washing, staining, imaging, and image analysis was performed identically to Pseudomonas liquid killing. EC values were defined as the minimum concentration that provided statistically significant rescue. At least three biological replicates were performed.

[3] = system: C. elegans host defense pathway genes; assay: nanoString expression of 115 immune- and stress-responsive genes; conditions: 100 μM LK molecules, 16 h
Protocol: The ratio of MIC to EC was determined for each of the 69 compounds.
Analysis of the expression of 115 immune- and stress-responsive genes using nanoString technology. Download Table S1, XLSX file, 0.02 MB.
For nanoString-based (nanoString Technologies, Seattle, WA) experiments, 2,000 wild-type, young adult worms were exposed to 100 μM LK molecules or DMSO control in S Basal medium in 6-well plates for 16 h. RNA purification and gene expression analysis were performed according to nanoString guidelines. Two biological replicates were tested for each condition.

SMILES: CCN(CC)/N=N/c1ccc(C(=O)O)cc1 [LK35]
- TD50 (time to 50% death), life span [1]: 7.7 days
- E. faecalis EC [2]: > 64 µM
- B0024.4 expression, induction [3]: 0.69 fold
- C02B4.2 nhr-17 expression, induction [3]: 4.68 fold
- C06B3.7 expression, induction [3]: 4.95 fold
- C07G3.2 irg-1 expression, induction [3]: 2.81 fold
- C12C8.1 hsp-70 expression, induction [3]: 9.31 fold
- C15F1.7 sod-1 expression, induction [3]: 1.69 fold
- C29F7.2 expression, induction [3]: 7.54 fold
- C31A11.5 oac-6 expression, induction [3]: 4.61 fold
- C32D5.12 expression, induction [3]: 0.39 fold
- C32H11.1 expression, induction [3]: 0.93 fold
- C32H11.3 expression, induction [3]: 2.10 fold
- C34G6.4 pgp-2 expression, induction [3]: 8.04 fold
- C37C3.10 expression, induction [3]: 68.75 fold
- C37H5.8 hsp-6 expression, induction [3]: 4.54 fold
- C49G7.5 irg-2 expression, induction [3]: 14.15 fold
- F08F8.5 numr-1 expression, induction [3]: 26.12 fold
- F08H9.4 expression, induction [3]: 14.14 fold
- F14F9.3 expression, induction [3]: 17.12 fold
- F22B5.4 expression, induction [3]: 0.69 fold
- F22H10.2 expression, induction [3]: 2.36 fold
- F26A3.4 expression, induction [3]: 1.28 fold
- F35E8.11 cdr-1 expression, induction [3]: 87.64 fold
- F35G2.4 phy-2 expression, induction [3]: 1.60 fold
- F37B12.2 gcs-1 expression, induction [3]: 12.12 fold
- F43E2.8 hsp-4 expression, induction [3]: 31.03 fold
- F44E5.5 expression, induction [3]: 8.59 fold
- F49F1.6 expression, induction [3]: 2.32 fold
- F49F1.7 expression, induction [3]: 2.34 fold
- F49H6.13 expression, induction [3]: 18.14 fold
- F54B8.4 expression, induction [3]: 4.73 fold
- F55G11.2 expression, induction [3]: 2.21 fold
- F59A7.1 clec-206 expression, induction [3]: 9.10 fold
- F59B10.4 expression, induction [3]: 4.48 fold
- H12D21.1 nspa-1 expression, induction [3]: 36.00 fold
- H23N18.1 ugt-13 expression, induction [3]: 10.66 fold
- H23N18.3 ugt-8 expression, induction [3]: 9.55 fold
- K05B2.4 expression, induction [3]: 14.78 fold
- K08F4.7 gst-4 expression, induction [3]: 12.53 fold
- K09A9.1 nipi-3 expression, induction [3]: 4.14 fold
- K10D11.2 expression, induction [3]: 11.43 fold
- K10G4.3 expression, induction [3]: 5.63 fold
- R03D7.6 gst-5 expression, induction [3]: 144.12 fold
- R08H2.1 dhs-23 expression, induction [3]: 121.17 fold
- R10E8.3 expression, induction [3]: 5.61 fold
- T19D12.3 expression, induction [3]: 88.57 fold
- T19H12.1 ugt-9 expression, induction [3]: 6.78 fold
- T21E8.1 pgp-6 expression, induction [3]: 2.39 fold
- T22B7.3 expression, induction [3]: 7.07 fold
- T24C4.4 expression, induction [3]: 4.80 fold
- T24E12.5 expression, induction [3]: 34.94 fold
- T27E4.3 hsp-16.48 expression, induction [3]: 10.63 fold
- T27E4.8 hsp-16.1 expression, induction [3]: 10.52 fold
- T27F6.8 expression, induction [3]: 3.60 fold
- T28C12.4 expression, induction [3]: 9.37 fold
- W02D9.10 expression, induction [3]: 7.18 fold
- Y22D7AL.5 hsp-60 expression, induction [3]: 2.52 fold
- Y38E10A.15 nspe-7 expression, induction [3]: 3.39 fold
- Y46H3A.2 hsp-16.41 expression, induction [3]: 6.06 fold
- Y46H3A.3 hsp-16.2 expression, induction [3]: 6.32 fold
- Y56A3A.33 expression, induction [3]: 3.94 fold
- Y58A7A.5 expression, induction [3]: 9.18 fold
- ZC376.7 atfs-1 expression, induction [3]: 3.43 fold
- ZC443.6 ugt-16 expression, induction [3]: 25.67 fold
- ZK697.6 gst-21 expression, induction [3]: 2.35 fold

SMILES: CN(C)/N=N/c1ccc(-c2cn(Cc3ccccc3)cn2)cc1 [LK38]
- TD50 (time to 50% death), life span [1]: 7.6 days
- E. faecalis EC [2]: > 64 µM
- B0024.4 expression, induction [3]: 3.17 fold
- C02B4.2 nhr-17 expression, induction [3]: 1.71 fold
- C06B3.7 expression, induction [3]: 1.11 fold
- C07G3.2 irg-1 expression, induction [3]: 2.65 fold
- C12C8.1 hsp-70 expression, induction [3]: 0.53 fold
- C15F1.7 sod-1 expression, induction [3]: 1.43 fold
- C29F7.2 expression, induction [3]: 32.57 fold
- C31A11.5 oac-6 expression, induction [3]: 9.73 fold
- C32D5.12 expression, induction [3]: 3.71 fold
- C32H11.1 expression, induction [3]: 18.31 fold
- C32H11.3 expression, induction [3]: 11.99 fold
- C34G6.4 pgp-2 expression, induction [3]: 4.68 fold
- C37C3.10 expression, induction [3]: 2.39 fold
- C37H5.8 hsp-6 expression, induction [3]: 1.74 fold
- C49G7.5 irg-2 expression, induction [3]: 3.91 fold
- F08F8.5 numr-1 expression, induction [3]: 1.76 fold
- F08H9.4 expression, induction [3]: 1.05 fold
- F14F9.3 expression, induction [3]: 6.65 fold
- F22B5.4 expression, induction [3]: 4.88 fold
- F22H10.2 expression, induction [3]: 0.89 fold
- F26A3.4 expression, induction [3]: 1.16 fold
- F35E8.11 cdr-1 expression, induction [3]: 136.66 fold
- F35G2.4 phy-2 expression, induction [3]: 1.91 fold
- F37B12.2 gcs-1 expression, induction [3]: 1.21 fold
- F43E2.8 hsp-4 expression, induction [3]: 1.31 fold
- F44E5.5 expression, induction [3]: 0.94 fold
- F49F1.6 expression, induction [3]: 3.06 fold
- F49F1.7 expression, induction [3]: 27.43 fold
- F49H6.13 expression, induction [3]: 1.54 fold
- F54B8.4 expression, induction [3]: 5.05 fold
- F55G11.2 expression, induction [3]: 2.13 fold
- F59A7.1 clec-206 expression, induction [3]: 56.72 fold
- F59B10.4 expression, induction [3]: 3.99 fold
- H12D21.1 nspa-1 expression, induction [3]: 0.84 fold
- H23N18.1 ugt-13 expression, induction [3]: 7.19 fold
- H23N18.3 ugt-8 expression, induction [3]: 35.45 fold
- K05B2.4 expression, induction [3]: 25.19 fold
- K08F4.7 gst-4 expression, induction [3]: 1.42 fold
- K09A9.1 nipi-3 expression, induction [3]: 2.18 fold
- K10D11.2 expression, induction [3]: 2.89 fold
- K10G4.3 expression, induction [3]: 3.15 fold
- R03D7.6 gst-5 expression, induction [3]: 21.05 fold
- R08H2.1 dhs-23 expression, induction [3]: 243.00 fold
- R10E8.3 expression, induction [3]: 1.97 fold
- T19D12.3 expression, induction [3]: 1.91 fold
- T19H12.1 ugt-9 expression, induction [3]: 8.16 fold
- T21E8.1 pgp-6 expression, induction [3]: 3.69 fold
- T22B7.3 expression, induction [3]: 1.08 fold
- T24C4.4 expression, induction [3]: 1.30 fold
- T24E12.5 expression, induction [3]: 2.60 fold
- T27E4.3 hsp-16.48 expression, induction [3]: 0.91 fold
- T27E4.8 hsp-16.1 expression, induction [3]: 0.90 fold
- T27F6.8 expression, induction [3]: 3.28 fold
- T28C12.4 expression, induction [3]: 8.72 fold
- W02D9.10 expression, induction [3]: 0.89 fold
- Y22D7AL.5 hsp-60 expression, induction [3]: 0.89 fold
- Y38E10A.15 nspe-7 expression, induction [3]: 1.82 fold
- Y46H3A.2 hsp-16.41 expression, induction [3]: 0.62 fold
- Y46H3A.3 hsp-16.2 expression, induction [3]: 0.79 fold
- Y56A3A.33 expression, induction [3]: 1.72 fold
- Y58A7A.5 expression, induction [3]: 2.03 fold
- ZC376.7 atfs-1 expression, induction [3]: 2.11 fold
- ZC443.6 ugt-16 expression, induction [3]: 78.74 fold
- ZK697.6 gst-21 expression, induction [3]: 47.19 fold
